Data: US5304474A, “Hydrophobic peptide esters and amides” (Board of Regents, The University of Texas System, priority 1991, dated 1994)

Columns and labels:
[1] = tested on: precursors of activated NK (AcNK); test: Elimination of activated NK-like cells (6 day MLC, lysis of K562); type: cell-based, human
Protocol: Experiments were also designed to assess the relative sensitivity of NK and CTL to Leu-Leu-OMe. In the studies detailed in FIGS. 8 and 9, cytotoxicity assays were performed over a broad range of E:T ratios and units of lytic activity arising from equal numbers of responding lymphocytes were calculated and compared. […] Only after exposure to greater than 250 micromolar Leu-Leu-OMe were all CTL precursors eliminated.
Non-adherent lymphocytes (2.5×10^6 /ml) were incubated with the indicated concentrations of Leu-Leu-OMe for 15 minutes. Cells were then washed and either placed in mixed lymphocyte culture or assayed for specific lysis of K562 cells (NK). After 6 day MLC, cells were assayed for specific lysis of allogeneic stimulator lymphoblasts (CTL) or K562 (AcNK). Data are expressed as percent of control lytic units (mean+SEM, n=6).
Both values were also higher than the mean concentration of Leu-Leu-OMe required to diminish spontaneous NK lytic activity by 75% (35 micromolar±4 micromolar). […] Thus, only after MLC activation did CTL display a sensitivity to Leu-Leu-OMe toxicity that was equal to that of NK cells.

K562 = test: 51Cr release toxicity assay; type: cell-based, human
Text: (§1) HS-Sultan, a human plasma cell line (Goldblum et al. (1973) Proc. Seventh Leucocyte Culture Conference, ed by Daguilland, Acad. Press N.Y. pp 15-28), Daudi, a B lymphoblastoid cell line (Klein et al. (1968) Cancer Res. V 28, p 1300), MoLT-4, an acute lymphoblastic T-cell leukemia line (Monowada et al. (1972) J. Nat'l Canc. Inst. V 49, p 891), and U-937, a human monocyte-like cell line (Koren et al. (1979) Nature V 279, p 891) were obtained from the American Type Culture Collection, Rockville, Md. These lines as well as HEp-2 a human epidermoid carcinoma line (a generous gift of Dr. R. Sontheimer, UTHSCD); Currie, a human renal cell carcinoma line (a generous gift of Dr. M. Prager, UTHSCD); and K562, a human erythroleukemia line (a generous gift of Dr. M. Bennett, UTHSCD) were maintained in culture in medium RMPI supplemented with 10% FBS. Human dermal fibroblasts (a generous gift of Dr. T. Geppert, UTHSCD) were serially passaged in culture as well while human umbilical vein endothelial cells (a generous gift of Dr. A. Johnson, UTHSCD) were used after one subculture Epttein Barr virus (EBV) transformed B lymphoblastoid cell lines JM.6 and SM.4 (kindly provided by Dr. J. Moreno, UTHSCD) and cloned EBV transformed B cell lines SDL-G2 and D8-219 (a generous gift of Drs. L. Stein and M. Dosch, Hospital for Sick Children, Toronto, Canada) were maintained in culture in medium RPMI supplemented with 10% FBS.
(§2) In some experiments, toxicity of Leu-Leu-OMe for a variety of cell populations was assessed by ^51 Cr release In assays where cells obtained from suspension culture were to be used, cells were labeled with Na2^51 CrO4 (ICN, Plainview, N.Y.) for 60-90 minutes at 37° C. and then washed three times. Cells were then suspended in PBS (2.5×10^6 /ml) and incubated in microtiter plates, 50 microL/well with indicated concentrations of Leu-Leu-OMe for 15 minutes at room temperature. […] Following ^51 Cr labeling, wells were thoroughly washed and varying concentrations of Leu-Leu-OMe added in 50 microL PBS and the plates incubated for 15 minutes at room temperature.
(§3) Following such initial serum-free incubations, 200 microL/well of medium RPMI containing 10% FBS were added and the plates incubated for another 4 hours prior to removal of 100 microliters of supernatant. Radioactivity in the supernatant was measured in an auto-gamma scintillation spectrometer (Packard Instrument Co., Downers Grove, Ill.). The percent specific release was calculated from the formula: [formula] in which maximal release refers to cpm obtained in wells containing 50% lysing agent (American Scientific Products, McGraw Park, Ill.) and spontaneous release refers to cpm released by cells incubated in control medium in the absence of Leu-Leu-OMe or the lysing agent. Only experiments in which spontaneous release was […] were used for subsequent data interpretation.
(§4) In developing the data expressed in FIG. 7, cells (2.5×10^6 /ml) were exposed to the indicated concentrations of Leu-Leu-OMe for 15 minutes at room temperature, then specific ^51 Cr release during the next four hours was assessed. Data for the EBV transformed lines JM.6, SDL-G2, D8-219, and SM.4, respectively, are shown in order from top to bottom.

U937 = test: 51Cr release toxicity assay; type: cell-based, human
Text: as §1, §2, §3, §4

MoLT-4 = test: 51Cr release toxicity assay; type: cell-based, human; conditions: broad concentration range
Text: as §1, §2, §3, §4

Daudi = test: 51Cr release toxicity assay; type: cell-based, human; conditions: broad range of concentrations
Text: as §1, §2, §3, §4

HS-Sultan = test: 51Cr release toxicity assay; type: cell-based, human; conditions: broad range of concentrations
Text: as §1, §2, §3, §4

[2] = tested on: EBV-transformed B cell lines or clones; test: 51Cr release toxicity assay; type: cell-based, human
Text: as §1, §2, §3, §4

[3] = tested on: nylon wool non-adherent lymphocytes (NAC); test: 51Cr release toxicity assay; type: cell-based, human; conditions: 25 to 50 micromolar
Protocol: as §2, §3, §4

[4] = tested on: epidermal carcinoma line, HEp-2; test: 51Cr release toxicity assay
[5] = tested on: peripheral blood lymphocytes (PBL); test: [3H]Leu-Leu-OMe uptake/binding by lymphocytes; type: in vitro ADME, human
Protocol: Human peripheral blood lymphocytes (PBL) were incubated in the presence of [^3 H]labeled Leu-Leu-OMe at 22° C. for varying lengths of time. The incubation mixture was then centrifuged through silicone oil to separate the cells from any unbound or non-internalized [^3 HLeu-Leu-OMe. […] At 37° C., levels of [^3 H]Leu-Leu-OMe accumulation by PBL were increased above those seen at 22° C. (see Table 4).

human erythrocytes (RBC) = test: 51Cr release from RBC incubated with peptide ester alone; type: cell-based; conditions: for ^51 Cr Release from RBC: Nil 410 + 12
Protocol: The following experiments were carried out to determine whether DPPI could generate a lytic product from Leu-Leu-OMe. In the experiment detailed in FIG. 12, ^51 Cr-labeled human erythrocytes (RBC) were incubated with varying concentrations of Leu-Leu-OMe alone or in the presence of purified bovine DPPI.

COC(=O)[C@H](CC(C)C)NC(=O)[C@@H](N)CC(C)C [Leu-Leu-OMe, L-leucyl-L-leucine methyl ester]
precursors of activated NK, lytic units ([1]; 100 micromolar, 15 minutes (FIG. 8)): totally eliminated | mean concentration required to diminish lytic activity by 75% ([1]; elimination of precursors of activated NK): 50 ± 5 µM | 51Cr release and proliferative rate (K562; 100 micromolar or lower): no significant ^51 Cr release or alteration in subsequent proliferative rate | 51Cr release and proliferative capacity (K562; higher than 100 micromolar): modest amounts of ^51 Cr release and partial loss of proliferative capacity | concentration above which extensive 51Cr release and no viable proliferating cell (U937): more than 250 micromolar | toxicity (51Cr release) (U937; concentration-dependent): susceptible to concentration-dependent Leu-Leu-OMe toxicity | toxicity (51Cr release) (MoLT-4): no detectable Leu-Leu-OMe toxicity over a broad concentration range | 51Cr release and proliferative rate (Daudi): no significant ^51 Cr release or alteration in subsequent proliferative rate | 51Cr release and proliferative rate (HS-Sultan): no significant ^51 Cr release or alteration in subsequent proliferative rate | 51Cr release ([2]; 1 mM, some EBV lines): less than 20% | 51Cr release ([2]; 250 micromolar, other lines): 25-35% | toxicity (51Cr release) ([2]; less than 250 micromolar): no significant toxicity | 51Cr release [3]: small but significant ^51 Cr release | 51Cr release [4]: no significant Leu-Leu-OMe induced ^51 Cr release | subsequent proliferative capacity ([4]; 500 micromolar): had no discernible effect on subsequent proliferative capacity | Km ([5]; 15 minute incubation at 22° C.): ~100 µM | Vmax of uptake ([5]; 15 minute incubation at 22° C.): approximately 10^-10 moles/minute/10^6 cells | external concentration of near maximal uptake ([5]; 15 minute incubation at 22° C. (FIG. 11)): 250-500 micro-M | ^51 Cr Release from RBC (human erythrocytes (RBC); 100 micro-M): 400 + 27 | ^51 Cr Release from RBC (human erythrocytes (RBC); 500 micro-M): 482 + 57 | ^51 Cr Release from RBC (human erythrocytes (RBC); 2500 micro-M): 482 + 121 | damage to RBC by compound alone, in words (human erythrocytes (RBC); no DPPI): results in no damage to RBC
